Laboratory results as given in US20100111888A1, “Organic Compounds and Compositions Having the Ability to Modulate Fragrance Compositions” (GIVAUDAN SA, priority 2007, published 2010).
pIC50: −log10 of the molar value.

Tests used:
Format in all cases: biochemical
CYP2A13 = biological target: T1, CYP2A13 (Homo sapiens, UniProt Q16696); test: Evaluation of test compounds as inhibitors of CYP2A13 (coumarin to Umbelliferone, fluorescence); details: substrate coumarin 0.006 mM; microsomes with 7 pmoles CYP2A13; 60 min at 37° C.; read-out: CYP2A13 inhibitor activity IC50
T1 construct: made in house; host or cells: Sf9 insect cells, recombinant baculovirus
T1 sequence (Q16696 1-494): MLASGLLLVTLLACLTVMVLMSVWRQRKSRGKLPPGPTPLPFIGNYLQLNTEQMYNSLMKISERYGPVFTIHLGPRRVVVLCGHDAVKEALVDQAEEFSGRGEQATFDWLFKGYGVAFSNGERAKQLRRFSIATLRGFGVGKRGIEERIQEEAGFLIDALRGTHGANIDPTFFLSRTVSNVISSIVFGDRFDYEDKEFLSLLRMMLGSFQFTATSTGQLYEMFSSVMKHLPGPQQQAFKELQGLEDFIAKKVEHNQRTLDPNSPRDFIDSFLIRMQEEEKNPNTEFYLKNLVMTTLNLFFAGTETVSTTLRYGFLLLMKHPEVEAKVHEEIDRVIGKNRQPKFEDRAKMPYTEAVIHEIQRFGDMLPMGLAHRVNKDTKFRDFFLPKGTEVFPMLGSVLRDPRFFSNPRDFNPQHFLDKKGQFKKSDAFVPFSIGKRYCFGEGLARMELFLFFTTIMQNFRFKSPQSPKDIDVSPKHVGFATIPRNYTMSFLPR
Excerpt: P450 reductase is commercially available (BD Biosciences Gentest, USA).
Microsomes were used which contained 7 pmoles CYP2A13.

CYP2A6 = biological target: T2, CYP2A6 (Homo sapiens, UniProt P11509); test: Evaluation of test compounds as inhibitors of CYP2A6 (coumarin to Umbelliferone, fluorescence); details: substrate coumarin 0.003 mM; microsomes with 2 pmoles CYP2A6; 60 min at 37° C.; read-out: CYP2A6 inhibitor activity IC50
T2 construct: purchased BD Biosciences Gentest, USA
T2 sequence (P11509 1-494): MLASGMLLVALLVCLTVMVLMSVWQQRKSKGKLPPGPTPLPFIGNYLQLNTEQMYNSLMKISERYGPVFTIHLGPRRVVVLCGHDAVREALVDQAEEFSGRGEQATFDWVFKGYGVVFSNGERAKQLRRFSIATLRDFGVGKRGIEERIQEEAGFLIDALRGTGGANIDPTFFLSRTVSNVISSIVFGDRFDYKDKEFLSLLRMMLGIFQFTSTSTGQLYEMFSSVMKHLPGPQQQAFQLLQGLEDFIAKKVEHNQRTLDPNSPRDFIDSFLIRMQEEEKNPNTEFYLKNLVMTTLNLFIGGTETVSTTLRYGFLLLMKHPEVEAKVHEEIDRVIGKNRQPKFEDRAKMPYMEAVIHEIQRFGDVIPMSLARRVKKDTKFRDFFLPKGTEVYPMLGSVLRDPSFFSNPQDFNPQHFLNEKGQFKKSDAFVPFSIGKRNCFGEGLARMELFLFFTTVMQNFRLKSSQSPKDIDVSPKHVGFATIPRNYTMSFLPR
Description: Test compounds that inhibit the activity of CYP2A6 are identified by using the same principle as described in Example 1, first paragraph.
A test compound (details see Table 2) was incubated with CYP2A6 in the presence of a cytochrome P450 reductase. CYP2A6 and P450 reductase were employed in form of microsomes (BD Biosciences Gentest, USA). Microsomes were used which contained 2 pmoles CYP2A6 and an amount of NADPH-P450 reductase corresponding to cytochrome c reductase activity of 87 nmole/(min×mg protein). […] The concentration of the standard substrate coumarin was 0.003 mM.
The samples were analysed spectrofluorometrically according to the procedure described in Example 1.

CYP2B6 = biological target: T3, CYP2B6 (Homo sapiens, UniProt P20813); test: Inhibition of human CYP2B6 (7-ethoxy-4-trifluoromethyl-coumarin, fluorescence); details: substrate 7-ethoxy-4-trifluoromethyl-coumarin 6 μM; microsomes with 1.5 pmoles CYP2B6; 40 min at 37° C.; read-out: CYP2B6 inhibitor activity IC50
T3 construct: made in house; host or cells: Sf9 insect cells, recombinant baculoviruses
T3 sequence (P20813 1-491): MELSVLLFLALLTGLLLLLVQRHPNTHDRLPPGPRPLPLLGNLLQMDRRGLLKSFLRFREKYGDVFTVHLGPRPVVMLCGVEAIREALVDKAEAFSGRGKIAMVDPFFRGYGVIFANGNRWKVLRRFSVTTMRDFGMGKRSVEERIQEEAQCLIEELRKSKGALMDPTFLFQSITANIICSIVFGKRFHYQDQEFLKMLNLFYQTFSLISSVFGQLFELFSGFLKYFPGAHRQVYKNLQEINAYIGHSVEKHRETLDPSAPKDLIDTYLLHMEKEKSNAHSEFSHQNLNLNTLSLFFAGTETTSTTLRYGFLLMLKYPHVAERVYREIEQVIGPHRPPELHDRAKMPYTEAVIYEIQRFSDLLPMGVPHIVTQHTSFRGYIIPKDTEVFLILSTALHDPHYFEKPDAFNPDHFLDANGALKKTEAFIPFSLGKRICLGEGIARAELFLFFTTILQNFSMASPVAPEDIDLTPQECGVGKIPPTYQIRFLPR
Description: Test compounds that inhibit the activity of CYP2B6 are identified by using the same principle as described in Example 1, first paragraph.
A test compound (details see Table 4) was incubated with CYP2B6 in the presence of a cytochrome P450 reductase. CYP2B6 and P450 reductase are produced using recombinant baculoviruses and co-expressing the two proteins in Sf9 insect cells as described in Example 1. Alternatively, microsomes containing CYP2B6 and the reductase are commercially available (BD Biosciences Gentest, USA). Microsomes were used which contained 1.5 pmoles CYP2B6. Potassium phosphate buffer final concentration was 100 mM, (1M stock, pH 7.4). […] The concentration of the standard substrate 7-ethoxy-4-trifluoromethyl-coumarin was 6 μM. […] The samples were incubated for 40 min at 37° C.

Structure (SMILES) | pIC50 (CYP2A13) | pIC50 (CYP2A6) | pIC50 (CYP2B6)
CCCC/C(=C\C1CC1)C(C)=O [Compound ID 1, (E)-3-(cyclopropylmethylene)heptan-2-one] | 6.30 | 5.52 | 5.41
CCCCCC/C(=C\C1CC1)C(C)=O [Compound ID 2, (E)-3-(cyclopropylmethylene)nonan-2-one] | 5.96 | 5.10 | 5.46
CCCCC/C(=C\C1CC1)C(C)=O [Compound ID 3, (E)-3-(cyclopropylmethylene)octan-2-one] | 6.52 | 5.15 | 5.40
CCCCCC(Cc1ccccc1)C(C)=O (stereo not drawn) [Compound ID 4, 3-phenylmethyloctan-2-one] | 5.32 | 3.83 | 
CCCCC/C(=C\c1ccccc1)C(C)=O [Compound ID 5, (E)-3-benzylideneoctan-2-one] | 6.22 | 3.85 | 
CCCCC/C(=C\C(C)(C)C)C(=O)O [Compound ID 54, (E)-2-(2,2-dimethylpropylidene)heptanoic acid] | 5.59 |  | 
CCCCC/C(=C\C(C)(C)C)C(C)=O [Compound ID 55, (E)-3-(2,2-dimethylpropylidene)octan-2-one] | 6.52 |  | 
CCCCC/C(=C\C(C)C)C(C)=O [Compound ID 56, (E)-3-(2-methylpropylidene)octan-2-one] | 6.70 |  | 
CCCCC/C(=C\C1CC1)C(=O)CC [Compound ID 57, (E)-4-(cyclopropylmethylene)nonan-3-one] | 6.52 |  | 
CCCCC/C(=C\c1ccccc1)C(=O)CC [Compound ID 58, (E)-4-benzylidenenonan-3-one] | 6.30 |  | 
